Measured values from patent US9296722B2, “Azolyl urea compounds and methods of use thereof” (Ambit Biosciences Corporation, priority 2010, dated 2016).

How the values were obtained:
CSF1R (human) = target: T1, CSF1R (human) (Homo sapiens, UniProt P07333); assay: Competition binding assay, CSF1R (human) Kd
T1 construct: made in house; host or cells: T7 phage display or HEK-293 cells (alternatives, not resolved per kinase)
Description: (§1) The liganded beads were blocked with excess biotin and washed with blocking buffer (SeaBlock (Pierce), 1% BSA, 0.05% Tween 20, 1 mM DTT) to remove unbound ligand and to reduce non-specific binding. […] Test compounds were prepared as 100× stocks in DMSO and diluted into the aqueous environment. Kds were determined using an eleven point threefold serial dilutions. DMSO or control compounds were was added to control assays lacking a test compound. […] The kinase concentration in the eluates was measured by quantitative PCR.

M-NFS-60 cells = assay: M-NFS-60 cell proliferation assay; assay type: cell-based, mouse; settings: Mus musculus; 72 hours incubation, Alamar Blue, M-CSF-dependent cells; read-out: CSF1R Cell Proliferation (M-NFS-60) IC50
Description: In certain embodiments, the compounds disclosed herein are tested in an M-NFS-60 cell proliferation assay to determine their cellular potency against CSF-1R. M-NFS-60s are mouse monocytic cells that depend on the binding of the ligand M-CSF to its receptor, CSF-1R, to proliferate Inhibition of CSF-1R kinase activity will cause reduced growth and/or cell death. This assay assesses the potency of compounds as CSF-1R inhibitors by measuring the reduction of Alamar Blue reagent by viable cells. An exemplary assay is described in the Examples section.
The compounds disclosed herein were tested in an M-NFS-60 cell proliferation assay to determine their cellular potency against CSF1R. M-NFS-60s are mouse monocytic cells that depend on the binding of the ligand M-CSF to its receptor, CSF1R, to proliferate Inhibition of CSF1R kinase activity will cause reduced growth and/or cell death. This assay assesses the potency of compounds as CSF1R inhibitors by measuring the reduction of Alamar Blue reagent by viable cells.
On day one of the experiment, M-NFS-60 cells were maintained in RPMI complete medium (Omega Scientific) plus 10% FBS supplemented with 20 ng/mL of M-CSF (R&D Systems). 96-well TC-treated, flat bottom plates were seeded at 10,000 cell/well at a volume of 100 μL per well. The cells were cultured overnight at 37° C. under 5% CO2.
On day two, compounds were added to the cells at 9 different concentrations, with half-log intervals alongside a control reference compound serving as a positive control. Final DMSO concentration was kept at 0.5% for a final volume of 200 μL. The compounds were allowed to incubate with the cells for 72 hours at 37° C. under 5% CO2.
On day five of the experiment, 40 μl of Alamar Blue reagent was added to each well and allowed to incubate for 3 hours. Alamar Blue fluorescence was read using SoftMax Pro software at 560 nm (excitation) and 590 nm (emission). IC50s were generated as an average of duplicates and represents the concentration of test compound that achieves 50% inhibition of cellular proliferation compared to control.

CSF1R (mouse) = target: T2, CSF1R (mouse) (Mus musculus, UniProt P09581); assay: Competition binding assay, CSF1R (mouse) Kd
T2 construct: made in house; host or cells: T7 phage display or HEK-293 cells (alternatives, not resolved per kinase)
T2 sequence (P09581 20-977): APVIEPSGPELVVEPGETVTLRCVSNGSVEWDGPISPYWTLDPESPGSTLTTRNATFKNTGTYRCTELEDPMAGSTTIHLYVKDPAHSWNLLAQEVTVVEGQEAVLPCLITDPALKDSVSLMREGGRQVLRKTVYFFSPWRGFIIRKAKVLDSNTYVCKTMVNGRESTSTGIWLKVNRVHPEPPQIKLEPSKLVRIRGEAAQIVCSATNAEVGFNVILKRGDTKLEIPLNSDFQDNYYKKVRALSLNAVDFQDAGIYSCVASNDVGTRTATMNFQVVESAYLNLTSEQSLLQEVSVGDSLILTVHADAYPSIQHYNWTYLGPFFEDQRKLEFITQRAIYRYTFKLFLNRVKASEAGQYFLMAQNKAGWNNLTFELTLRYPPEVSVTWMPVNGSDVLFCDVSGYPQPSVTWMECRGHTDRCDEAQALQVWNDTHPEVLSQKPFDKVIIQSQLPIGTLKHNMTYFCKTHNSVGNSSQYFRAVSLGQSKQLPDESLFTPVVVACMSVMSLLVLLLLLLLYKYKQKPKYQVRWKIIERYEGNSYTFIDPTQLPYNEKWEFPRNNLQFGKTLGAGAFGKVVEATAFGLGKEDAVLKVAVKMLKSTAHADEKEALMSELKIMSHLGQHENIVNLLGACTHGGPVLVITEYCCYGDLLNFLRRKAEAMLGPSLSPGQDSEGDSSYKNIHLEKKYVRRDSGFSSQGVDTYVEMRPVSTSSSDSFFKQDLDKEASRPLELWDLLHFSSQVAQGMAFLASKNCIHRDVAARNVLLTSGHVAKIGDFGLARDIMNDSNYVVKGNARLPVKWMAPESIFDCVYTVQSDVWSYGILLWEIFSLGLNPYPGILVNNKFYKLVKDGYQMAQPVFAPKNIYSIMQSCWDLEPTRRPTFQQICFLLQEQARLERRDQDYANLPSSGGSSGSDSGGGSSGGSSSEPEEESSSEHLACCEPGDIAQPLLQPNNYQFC
Description: as §1

[1] = target: kinase panel containing either 359 or 386 distinct kinases; assay: Competition binding assay, selectivity score (S10) against a panel of kinases; settings: compounds at 10 μM; fraction of kinases with percent of control less than 10
Description: Competition binding assays used herein were developed, validated and performed as described in Fabian et al., Nature Biotechnology 2005, 23, 329-336. Kinases were produced as fusions to T7 phage (See, Fabian et al. or WO04/015142) or alternatively, the kinases were expressed in HEK-293 cells and subsequently tagged with DNA for PCR detection (See, WO08/005,310). […] The liganded beads were blocked with excess biotin and washed with blocking buffer (SeaBlock (Pierce), 1% BSA, 0.05% Tween 20, 1 mM DTT) to remove unbound ligand and to reduce non-specific binding. […] Test compounds were prepared as 100× stocks in DMSO and diluted into the aqueous environment. Kds were determined using an eleven point threefold serial dilutions. DMSO or control compounds were was added to control assays lacking a test compound. Primary screen assays were performed in polypropylene 384-well plates in a final volume of 20-40 μL, while Kd determinations were performed in polystyrene 96-well plates in a final volume of […]. […] The kinase concentration in the eluates was measured by quantitative PCR.
A selectivity score (S10) is a quantitative measure of selectivity of a compound against a panel of kinases. An S10 was calculated for a compound by dividing the number of kinases found to have a percent of control (DMSO) less than 10 by the total number of distinct kinases tested (excluding mutant variants). Percent of control (POC) is calculated by subtracting the signal of the control compound
(POC=0) from the signal of the test compound and dividing the outcome by the signal of DMSO (POC=100) minus the signal of the control compound. For the compounds disclosed herein, S10 scores were obtained by testing the compounds at 10 μM concentration in a kinase panel containing either 359 or 386 distinct kinases.

T1 sequence (P07333 20-972): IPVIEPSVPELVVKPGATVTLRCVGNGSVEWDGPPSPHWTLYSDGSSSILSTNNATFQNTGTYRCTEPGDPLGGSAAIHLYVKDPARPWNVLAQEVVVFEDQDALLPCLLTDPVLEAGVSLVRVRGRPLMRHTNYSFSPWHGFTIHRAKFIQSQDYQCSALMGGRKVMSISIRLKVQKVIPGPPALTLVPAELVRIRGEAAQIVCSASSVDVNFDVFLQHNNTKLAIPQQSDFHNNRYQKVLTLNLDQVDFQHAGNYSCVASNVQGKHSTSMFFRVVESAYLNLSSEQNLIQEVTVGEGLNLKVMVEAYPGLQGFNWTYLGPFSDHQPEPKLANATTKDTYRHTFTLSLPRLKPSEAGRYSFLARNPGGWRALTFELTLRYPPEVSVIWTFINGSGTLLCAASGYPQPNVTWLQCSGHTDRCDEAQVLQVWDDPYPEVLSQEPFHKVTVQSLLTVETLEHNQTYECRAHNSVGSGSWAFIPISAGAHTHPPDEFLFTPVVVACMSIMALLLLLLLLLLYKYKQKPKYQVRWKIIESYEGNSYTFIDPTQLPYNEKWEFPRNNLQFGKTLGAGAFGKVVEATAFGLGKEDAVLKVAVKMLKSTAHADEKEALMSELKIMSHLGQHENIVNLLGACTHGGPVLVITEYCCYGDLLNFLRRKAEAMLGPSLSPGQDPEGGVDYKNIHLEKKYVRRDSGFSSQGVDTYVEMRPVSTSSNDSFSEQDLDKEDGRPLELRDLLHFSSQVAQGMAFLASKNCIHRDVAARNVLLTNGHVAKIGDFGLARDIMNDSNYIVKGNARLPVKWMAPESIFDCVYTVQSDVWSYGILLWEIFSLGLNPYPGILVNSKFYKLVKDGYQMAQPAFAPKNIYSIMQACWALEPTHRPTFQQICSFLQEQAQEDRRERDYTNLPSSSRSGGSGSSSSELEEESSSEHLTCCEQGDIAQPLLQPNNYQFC

Row | SMILES | Kd (CSF1R (human)) [nM] | Kd (CSF1R (mouse)) [nM] | Kinase Specificity (S10) [1] | IC50 (M-NFS-60 cells) [nM]
1 | CCN(CC)Cc1cccc(C(=O)Nc2ccc(NC(=O)Nc3cc(C(C)(C)C)on3)cc2)n1 | > 10 | > 10 | A (A ≦ 0.03) | > 1000
2 | CN1CCC(Oc2ccnc(C(=O)Nc3ccc(NC(=O)Nc4cc(C(C)(C)C)on4)cc3)c2)CC1 | 3 to 10 | 3 to 10 | B (0.03 < B ≦ 0.05) | 250 to 1000
3 | CC(C)(C)c1cc(NC(=O)Nc2ccc(NC(=O)c3cccc(OCCN4CCOCC4)n3)cc2)no1 | > 10 | > 10 | A (A ≦ 0.03) | > 1000
4 | CCN(CC)Cc1ccnc(C(=O)Nc2ccc(NC(=O)Nc3cc(C(C)(C)C)on3)cc2)c1 | 3 to 10 | 3 to 10 | A (A ≦ 0.03) | 250 to 1000
5 | CC(C)(C)c1cc(NC(=O)Nc2ccc(NC(=O)c3cccc(OC4CCNCC4)n3)cc2)no1 | > 10 | > 10 | B (0.03 < B ≦ 0.05) | > 1000
6 | CC(C)N1CCC(Oc2ccc(C(=O)Nc3ccc(NC(=O)Nc4cc(C(C)(CF)CF)on4)cc3)nc2)CC1 | < 3 | < 3 | B (0.03 < B ≦ 0.05) | ≤ 100
7 | CC(C)(C)c1cc(NC(=O)Nc2ccc(NC(=O)c3ccc(OC4CN(C5COC5)C4)cn3)cc2)no1 | < 3 | – | C (C > 0.05) | ≤ 100
8 | CCN1C(C)(C)CC(Oc2ccc(C(=O)Nc3ccc(NC(=O)Nc4cc(C(C)(C)C)no4)cc3)nc2)CC1(C)C | > 10 | – | B (0.03 < B ≦ 0.05) | ≤ 100
9 | CN1C(C)(C)CC(Oc2ccc(C(=O)Nc3ccc(NC(=O)Nc4cc(C(C)(C)F)no4)cc3)nc2)CC1(C)C | < 3 | – | A (A ≦ 0.03) | ≤ 100
10 | CC(C)(C)c1cc(NC(=O)Nc2ccc(NC(=O)c3ccc(OC4CCN(CCS(C)(=O)=O)C4)cn3)cc2)no1 (stereo not shown) | < 3 | – | C (C > 0.05) | ≤ 100
11 | CN1C(C)(C)CC(Oc2cnc(C(=O)Nc3ccc(NC(=O)Nc4cc(C(C)(C)C)on4)cc3)cn2)CC1(C)C | 3 to 10 | – | B (0.03 < B ≦ 0.05) | 100 to 250
12 | CN1C(C)(C)CC(C)(Oc2ccc(C(=O)Nc3ccc(NC(=O)Nc4cc(C(C)(C)C)on4)cc3)nc2)CC1(C)C | < 3 | – | C (C > 0.05) | ≤ 100
13 | CCN1C(C)(C)CC(Oc2ccc(C(=O)Nc3ccc(NC(=O)Nc4cc(C(C)(C)C)on4)cc3)nc2)CC1(C)C | < 3 | – | A (A ≦ 0.03) | ≤ 100
14 | CC(C)N1CC[C@@H](Oc2ccc(C(=O)Nc3ccc(NC(=O)Nc4cc(C(C)(C)C)on4)cc3)nc2)C1 | < 3 | – | C (C > 0.05) | ≤ 100

Second part, led by results:

Row | Kd (CSF1R (human)) [nM] | Kd (CSF1R (mouse)) [nM] | Kinase Specificity (S10) [1] | SMILES | IC50 (M-NFS-60 cells) [nM]
15 | < 3 | < 3 | A (A ≦ 0.03) | CC(CF)(CF)c1cc(NC(=O)Nc2ccc(NC(=O)c3ccc(OC4CCN(CC(F)(F)F)CC4)cn3)cc2)no1 | 100 to 250
16 | 3 to 10 | 3 to 10 | A (A ≦ 0.03) | CCN1CCC(Oc2ccc(C(=O)N[C@H]3CC[C@H](NC(=O)Nc4cc(C(C)(C)C)on4)CC3)nc2)CC1 | 250 to 1000
17 | 3 to 10 | 3 to 10 | A (A ≦ 0.03) | CC(C)(C)c1cc(NC(=O)N[C@H]2CC[C@H](NC(=O)c3ccc(OC4CCNCC4)cn3)CC2)no1 | > 1000
18 | < 3 | < 3 | B (0.03 < B ≦ 0.05) | CCN1CCC(Oc2ccc(C(=O)Nc3ccc(NC(=O)Nc4cc(C(C)(CF)CF)on4)cc3)nc2)CC1 | ≤ 100
19 | < 3 | < 3 | A (A ≦ 0.03) | CC(C)(C)c1cc(NC(=O)Nc2ccc(NC(=O)c3ccc(CC4CCNCC4)cn3)cc2)no1 | 100 to 250
20 | 3 to 10 | 3 to 10 | A (A ≦ 0.03) | CC(C)(C)c1cc(NC(=O)Nc2ccc(NC(=O)c3ccc(CN4CCOCC4)cn3)cc2)no1 | 100 to 250
21 | 3 to 10 | 3 to 10 | B (0.03 < B ≦ 0.05) | CN1CCC(c2ccc(C(=O)Nc3ccc(NC(=O)Nc4cc(C(C)(C)C)on4)cc3)nc2)CC1 | ≤ 100
22 | < 3 | – | B (0.03 < B ≦ 0.05) | CC(C)N1CC(Oc2ccc(C(=O)Nc3ccc(NC(=O)Nc4cc(C(C)(C)C)on4)cc3)nc2)C1 | ≤ 100
23 | > 10 | – | C (C > 0.05) | CCN1CC[C@@H](COc2ccc(C(=O)Nc3ccc(NC(=O)Nc4cc(C(C)(C)C)on4)cc3)nc2)C1 | ≤ 100
24 | < 3 | – | B (0.03 < B ≦ 0.05) | CN(C)C(=O)CN1CCC(Oc2ccc(C(=O)Nc3ccc(NC(=O)Nc4cc(C(C)(C)C)on4)cc3)nc2)C1 (stereo not shown) | ≤ 100
25 | < 3 | – | C (C > 0.05) | CN1C(C)(C)CC(Oc2ccc(C(=O)Nc3ccc(NC(=O)Nc4cc(C(F)(F)F)n(C)n4)cc3)nc2)CC1(C)C | 250 to 1000
26 | < 3 | – | B (0.03 < B ≦ 0.05) | CCN1CC(Oc2ccc(C(=O)Nc3ccc(NC(=O)Nc4cc(C(C)(C)C)on4)cc3)nc2)C1 | 100 to 250
